# According to ChEMBL document CHEMBL1201862, “PubChem BioAssay data set” (2004):
#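 Assay format: 96-well plates, 48-hour exposure. GI50 marks 50% less growth.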 The source made the active and inactive calls. Rule as the data show it: active = GI50 up to about 1.1 µM and inactive = higher.
# Tests used:
# Assay in all cases: inhibition of tumour cell growth, NCI panel, 48 h
# IGROV-1 = system: IGROV-1
# MDA-MB-435 = system: MDA-MB-435
# CCRF-CEM = system: CCRF-CEM
# ACHN = system: ACHN
# SN12C = system: SN12C
# K562 = system: K562
# SR = system: SR
# PC-3 = system: PC-3
# SK-MEL-28 = system: SK-MEL-28
# T47D = system: T47D
# NCI-H23 = system: NCI-H23
# OVCAR-3 = system: OVCAR-3
# UO-31 = system: UO-31
# SF-268 = system: SF-268
# HCT-116 = system: HCT-116
# MCF7 = system: MCF7
# RPMI-8226 = system: RPMI-8226
# NCI-H522 = system: NCI-H522
# CAKI-1 = system: CAKI-1
# A498 = system: A498
SMILES,GI50 (IGROV-1),GI50 (MDA-MB-435),GI50 (CCRF-CEM),GI50 (ACHN),GI50 (SN12C),GI50 (K562),GI50 (SR),GI50 (PC-3),GI50 (SK-MEL-28),GI50 (T47D),GI50 (NCI-H23),GI50 (OVCAR-3),GI50 (UO-31),GI50 (SF-268),GI50 (HCT-116),GI50 (MCF7),GI50 (RPMI-8226),GI50 (NCI-H522),GI50 (CAKI-1),GI50 (A498)
CC1(C)N=C(N)N=C(N)N1c1ccc(CCCCc2ccc(Cl)cc2Cl)cc1,0.451 µM (active),0.598 µM (active),0.736 µM (active),4.57 µM (inactive),0.502 µM (active),42.2 µM (inactive),0.735 µM (active),0.418 µM (active),2.88 µM (inactive),1.29 µM (inactive),0.339 µM (active),0.431 µM (active),21.2 µM (inactive),0.382 µM (active),0.247 µM (active),0.453 µM (active),1.17 µM (inactive),0.433 µM (active),2.05 µM (inactive),12.8 µM (inactive)
Nc1ncnc2c1ncn2CCCNO,> 100 µM (inactive),> 100 µM (inactive),> 100 µM (inactive),> 100 µM (inactive),> 100 µM (inactive),> 100 µM (inactive),> 100 µM (inactive),> 100 µM (inactive),> 100 µM (inactive),> 100 µM (inactive),> 100 µM (inactive),> 100 µM (inactive),> 100 µM (inactive),> 100 µM (inactive),> 100 µM (inactive),> 100 µM (inactive),> 100 µM (inactive),> 100 µM (inactive),> 100 µM (inactive),> 100 µM (inactive)
N#CC(C#N)=NNc1ccc2cn[nH]c2c1,> 100 µM (inactive),34.3 µM (inactive),13.6 µM (inactive),33.1 µM (inactive),40.6 µM (inactive),15.7 µM (inactive),22.6 µM (inactive),> 100 µM (inactive),> 100 µM (inactive),35.7 µM (inactive),19.1 µM (inactive),23.9 µM (inactive),14 µM (inactive),36.3 µM (inactive),20.5 µM (inactive),31.1 µM (inactive),26.2 µM (inactive),12.2 µM (inactive),29.6 µM (inactive),> 100 µM (inactive)
NS(=O)(=O)c1c(O)c2ccccc2oc1=O,> 100 µM (inactive),> 100 µM (inactive),> 100 µM (inactive),> 100 µM (inactive),> 100 µM (inactive),> 100 µM (inactive),> 100 µM (inactive),> 100 µM (inactive),> 100 µM (inactive),> 100 µM (inactive),> 100 µM (inactive),> 100 µM (inactive),> 100 µM (inactive),> 100 µM (inactive),> 100 µM (inactive),> 100 µM (inactive),> 100 µM (inactive),> 100 µM (inactive),> 100 µM (inactive),> 100 µM (inactive)
Cc1[nH]c2c(c1C)S(=O)(=O)c1cc3ccccc3nc1N2,10.1 µM (inactive),26.4 µM (inactive),5.09 µM (inactive),29.5 µM (inactive),16.4 µM (inactive),10.9 µM (inactive),17.1 µM (inactive),34.3 µM (inactive),25.5 µM (inactive),> 100 µM (inactive),23.9 µM (inactive),19.9 µM (inactive),21.6 µM (inactive),28.1 µM (inactive),15.8 µM (inactive),5.15 µM (inactive),14.7 µM (inactive),21.4 µM (inactive),30.5 µM (inactive),73.8 µM (inactive)
CN(C)CCNC(=O)Cn1ccc(=O)c2cc([N+](=O)[O-])ccc21,> 100 µM (inactive),> 100 µM (inactive),> 100 µM (inactive),> 100 µM (inactive),> 100 µM (inactive),> 100 µM (inactive),> 100 µM (inactive),> 100 µM (inactive),> 100 µM (inactive),> 100 µM (inactive),> 100 µM (inactive),> 100 µM (inactive),> 100 µM (inactive),> 100 µM (inactive),> 100 µM (inactive),> 100 µM (inactive),> 100 µM (inactive),> 100 µM (inactive),> 100 µM (inactive),> 100 µM (inactive)
Clc1ccc(-c2nn3c(CCCCCCCCc4nnc5sc(-c6ccc(Cl)cc6)nn45)nnc3s2)cc1,22.8 µM (inactive),17 µM (inactive),11.8 µM (inactive),30.1 µM (inactive),17.5 µM (inactive),20 µM (inactive),17.1 µM (inactive),11.5 µM (inactive),23.6 µM (inactive),4.67 µM (inactive),27.1 µM (inactive),19.8 µM (inactive),12.6 µM (inactive),23.2 µM (inactive),15.9 µM (inactive),5.81 µM (inactive),10.3 µM (inactive),7.91 µM (inactive),16.3 µM (inactive),24.8 µM (inactive)
CC1=NN(c2nc(N)nc(CCl)n2)C(C)(C)C1,4.41 µM (inactive),34.8 µM (inactive),8.15 µM (inactive),10.3 µM (inactive),30.3 µM (inactive),27.2 µM (inactive),15.8 µM (inactive),40.8 µM (inactive),34.1 µM (inactive),45.6 µM (inactive),10.8 µM (inactive),14.1 µM (inactive),9.02 µM (inactive),20.6 µM (inactive),25.9 µM (inactive),45 µM (inactive),25.6 µM (inactive),1.39 µM (inactive),3.15 µM (inactive),30.6 µM (inactive)
O=C(Nc1sccc1S(=O)(=O)c1ccc(Cl)cc1)c1ccc(Cl)cc1Cl,> 100 µM (inactive),14.5 µM (inactive),> 100 µM (inactive),> 100 µM (inactive),> 100 µM (inactive),> 53.3 µM (inactive),12.1 µM (inactive),> 100 µM (inactive),> 100 µM (inactive),19.1 µM (inactive),> 81.3 µM (inactive),28.2 µM (inactive),> 100 µM (inactive),> 100 µM (inactive),> 100 µM (inactive),44.6 µM (inactive),10.7 µM (inactive),34.1 µM (inactive),> 100 µM (inactive),> 100 µM (inactive)
CC(=N)OC1CC2CCC1(C)C2(C)C (configuration not stated),> 100 µM (inactive),> 100 µM (inactive),> 100 µM (inactive),> 100 µM (inactive),> 100 µM (inactive),> 100 µM (inactive),> 100 µM (inactive),> 100 µM (inactive),> 100 µM (inactive),> 100 µM (inactive),> 100 µM (inactive),> 100 µM (inactive),> 100 µM (inactive),> 100 µM (inactive),> 100 µM (inactive),> 100 µM (inactive),> 100 µM (inactive),> 100 µM (inactive),> 100 µM (inactive),> 100 µM (inactive)
CN(C)/C=C1\CCc2ccc([N+](=O)[O-])cc2C1=O,> 100 µM (inactive),19.1 µM (inactive),19.8 µM (inactive),> 100 µM (inactive),18.3 µM (inactive),24.4 µM (inactive),31 µM (inactive),30.6 µM (inactive),> 100 µM (inactive),26.7 µM (inactive),53.6 µM (inactive),18.3 µM (inactive),> 100 µM (inactive),> 100 µM (inactive),17.9 µM (inactive),26 µM (inactive),27.4 µM (inactive),> 100 µM (inactive),> 100 µM (inactive),> 100 µM (inactive)
COc1cc(C2SCC(=O)N2c2ccc(Cl)c(Cl)c2)cc(OC)c1OC (configuration not stated),> 82.6 µM (inactive),11.1 µM (inactive),14.8 µM (inactive),–,> 54.5 µM (inactive),1.28 µM (inactive),9.75 µM (inactive),54.2 µM (inactive),> 50.9 µM (inactive),10.6 µM (inactive),69.5 µM (inactive),34.1 µM (inactive),18.9 µM (inactive),> 100 µM (inactive),25.5 µM (inactive),38.2 µM (inactive),31.8 µM (inactive),22.1 µM (inactive),27.5 µM (inactive),> 100 µM (inactive)
CN(C)CCCSc1nc2c(c(=N)n1-c1ccccc1)c(=S)n(-c1ccccc1)c(=S)n2-c1ccccc1,1.83 µM (inactive),1.72 µM (inactive),0.43 µM (active),1.82 µM (inactive),1.74 µM (inactive),0.459 µM (active),0.237 µM (active),1.75 µM (inactive),2.04 µM (inactive),2.01 µM (inactive),2.07 µM (inactive),1.75 µM (inactive),–,1.73 µM (inactive),1.98 µM (inactive),0.383 µM (active),0.39 µM (active),1.69 µM (inactive),1.77 µM (inactive),2.42 µM (inactive)
Cn1c(=O)n2c(=O)n(C)c(=O)n2c1=O,> 100 µM (inactive),> 100 µM (inactive),> 100 µM (inactive),–,> 100 µM (inactive),> 100 µM (inactive),> 100 µM (inactive),> 100 µM (inactive),> 100 µM (inactive),> 100 µM (inactive),> 100 µM (inactive),> 100 µM (inactive),> 100 µM (inactive),> 100 µM (inactive),91.8 µM (inactive),> 100 µM (inactive),> 100 µM (inactive),> 100 µM (inactive),> 100 µM (inactive),> 100 µM (inactive)
